Experimental data: PubChem BioAssay AID328 (DTP/NCI, 2004)
“And” between values parts separate entries of the source, which are not always exact repeats. Identical values can stand only once. Toxic doses and inconclusive results are not listed.

Test system: BDF1 mice, P388 leukemia ip, median survival T/C
Experiment: NCI In Vivo Anticancer Drug Screen. Data for tumor model P388 Leukemia (intraperitoneal) in B6D2F1 (BDF1) mice
Settings: endpoint: median survival time, higher = longer survival
Method in brief: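 Steps: implant the tumour, treat one group with compound and another with vehicle, record survival, then divide treated by control.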

[1] = dose: 100.0 mg/kg/injection, schedule: Q04DX003 (ip), vehicle: saline
[2] = dose: 200.0 mg/kg/injection, schedule: Q04DX003 (ip), vehicle: saline
[3] = dose: 400.0 mg/kg/injection, schedule: Q04DX003 (ip), vehicle: saline
[4] = dose: 50.0 mg/kg/injection, schedule: Q01DX009 (ip), vehicle: saline with Tween-80
[5] = dose: 100.0 mg/kg/injection, schedule: Q01DX009 (ip), vehicle: saline with Tween-80
[6] = dose: 25.0 mg/kg/injection, schedule: Q04DX003 (ip), vehicle: saline with Tween-80
[7] = dose: 100.0 mg/kg/injection, schedule: Q04DX003 (ip), vehicle: saline with Tween-80
[8] = dose: 200.0 mg/kg/injection, schedule: Q04DX003 (ip), vehicle: saline with Tween-80
[9] = dose: 400.0 mg/kg/injection, schedule: Q04DX003 (ip), vehicle: saline with Tween-80
[10] = dose: 200.0 mg/kg/injection, schedule: Q01DX009 (ip), vehicle: saline with Tween-80
[11] = dose: 100.0 mg/kg/injection, schedule: Q01DX009 (ip), vehicle: Klucel (hydroxypropylcellulose) (HPC)
[12] = dose: 100.0 mg/kg/injection, schedule: Q04DX003 (ip), vehicle: Klucel (hydroxypropylcellulose) (HPC)
[13] = dose: 200.0 mg/kg/injection, schedule: Q01DX009 (ip), vehicle: Klucel (hydroxypropylcellulose) (HPC)
[14] = dose: 25.0 mg/kg/injection, schedule: Q01DX009 (ip), vehicle: saline with Tween-80

Question: What does the source list for `C[N+](C)(C)CCC[N+](C)(C)C`?
Answer: T/C [1]: 100 % of control; T/C (dose: 200.0 mg/kg/injection, schedule: Q01DX006 (ip), vehicle: saline): 114 % of control; T/C [2]: 104 % of control; T/C (dose: 300.0 mg/kg/injection, schedule: Q01DX006 (ip), vehicle: saline): 151 % of control; T/C (dose: 400.0 mg/kg/injection, schedule: Q01DX006 (ip), vehicle: saline): 94 % of control; T/C [3]: 93 % of control

Question: How did the T/C (dose: 100.0 mg/kg/injection, schedule: Q04DX003 (sc), vehicle: olive oil, sesame oil, peanut oil) turn out when `C=CCc1c(C)cc(C)c(C)c1O` was run?
Answer: 96 % of control

Question: And the T/C (dose: 200.0 mg/kg/injection, schedule: Q04DX003 (sc), vehicle: olive oil, sesame oil, peanut oil)?
Answer: 92 % of control

Question: And the T/C (dose: 400.0 mg/kg/injection, schedule: Q04DX003 (sc), vehicle: olive oil, sesame oil, peanut oil)?
Answer: 92 % of control

Question: Which T/C (dose: 75.0 mg/kg/injection, schedule: Q04DX003 (ip), vehicle: saline with Tween-80) does the source give for `O=[N+]([O-])c1cc(C(F)(F)F)ccc1/C=C/c1ccccc1Br` here?
Answer: 86 % of control

Question: And the T/C (dose: 150.0 mg/kg/injection, schedule: Q04DX003 (ip), vehicle: saline with Tween-80)?
Answer: 90 % of control

Question: What about the T/C (dose: 300.0 mg/kg/injection, schedule: Q04DX003 (ip), vehicle: saline with Tween-80) of the same molecule?
Answer: 100 % of control

Question: How did the T/C [4] turn out when `O=C=Nc1ccc(CCc2ccc(N=C=O)cc2)cc1` was run?
Answer: 110 % of control

Question: And the T/C [5]?
Answer: 120 % of control

Question: `CCN(CC)c1ccc(/C=C\c2c(C)cnc3ccccc23)cc1` was tested. Which T/C [6] did it give?
Answer: 95 % of control

Question: And the T/C (dose: 50.0 mg/kg/injection, schedule: Q04DX003 (ip), vehicle: saline with Tween-80)?
Answer: 95 % of control

Question: And the T/C [7]?
Answer: 96 % of control and 110 % of control

Question: And the T/C [8]?
Answer: 97 % of control

Question: What about the T/C [9] of the same molecule?
Answer: 97 % of control

Question: How did the T/C (dose: 4.0 mg/kg/injection, schedule: Q01DX009 (ip), vehicle: Klucel (hydroxypropylcellulose) (HPC)) turn out when `CC[CH2][Pb]([CH2]CC)([CH2]CC)[O]C(=O)C(F)(F)F` was run?
Answer: 113 % of control

Question: What about the T/C (dose: 4.0 mg/kg/injection, schedule: Q01DX009 (ip), vehicle: saline with Tween-80) of the same molecule?
Answer: 122 % of control

Question: And the T/C (dose: 6.0 mg/kg/injection, schedule: Q01DX009 (ip), vehicle: Klucel (hydroxypropylcellulose) (HPC))?
Answer: 111 % of control

Question: And the T/C (dose: 6.0 mg/kg/injection, schedule: Q01DX009 (ip), vehicle: saline with Tween-80)?
Answer: 150 % of control

Question: Which results are given for `CC(C)=CCC/C(C)=C/COC(=O)Cc1ccccc1`?
Answer: T/C [5]: 104 % of control; T/C [7]: 100 % of control; T/C [10]: 109 % of control; T/C [8]: 105 % of control; T/C (dose: 400.0 mg/kg/injection, schedule: Q01DX009 (ip), vehicle: saline with Tween-80): 118 % of control; T/C [9]: 122 % of control

Question: What does the source list for `Cc1cccc(S(=O)(=O)F)c1`?
Answer: T/C (dose: 37.5 mg/kg/injection, schedule: Q01DX009 (ip), vehicle: Klucel (hydroxypropylcellulose) (HPC)): 104 % of control; T/C (dose: 75.0 mg/kg/injection, schedule: Q01DX009 (ip), vehicle: Klucel (hydroxypropylcellulose) (HPC)): 95 % of control; T/C (dose: 150.0 mg/kg/injection, schedule: Q01DX009 (ip), vehicle: Klucel (hydroxypropylcellulose) (HPC)): 90 % of control

Question: Which results are given for `Cn1c(=O)[nH]c(=O)c2nc(-c3cccnc3)c(-c3ccncc3)nc21`?
Answer: T/C (dose: 100.0 mg/kg/injection, schedule: Q04DX002 (ip), vehicle: saline with Tween-80): 101 % of control; T/C (dose: 200.0 mg/kg/injection, schedule: Q04DX002 (ip), vehicle: saline with Tween-80): 99 % of control; T/C (dose: 400.0 mg/kg/injection, schedule: Q04DX002 (ip), vehicle: saline with Tween-80): 110 % of control

Question: What does the source list for `Cc1cc(N(C)C)ccc1C=O`?
Answer: T/C [11]: 100 % of control; T/C [12]: 100 % of control; T/C [13]: 95 % of control; T/C (dose: 400.0 mg/kg/injection, schedule: Q01DX009 (ip), vehicle: Klucel (hydroxypropylcellulose) (HPC)): 109 % of control; T/C (dose: 400.0 mg/kg/injection, schedule: Q04DX003 (ip), vehicle: Klucel (hydroxypropylcellulose) (HPC)): 91 % of control

Question: `O=C(c1cc2c3ccccc3ccc2c2ccccc12)C(Br)Br` was tested. Which T/C [14] did it give?
Answer: 113 % of control

Question: What does the source list for `COc1ccc(/C=C/C(=N\O)c2ccc(OC)c(OC)c2)cc1OC`?
Answer: T/C (dose: 25.0 mg/kg/injection, schedule: Q01DX009 (ip), vehicle: saline): 118 % of control; T/C (dose: 25.0 mg/kg/injection, schedule: Q04DX003 (ip), vehicle: saline): 105 % of control; T/C (dose: 50.0 mg/kg/injection, schedule: Q01DX009 (ip), vehicle: saline): 97 % of control; T/C (dose: 50.0 mg/kg/injection, schedule: Q04DX003 (ip), vehicle: saline): 96 % of control; T/C (dose: 100.0 mg/kg/injection, schedule: Q01DX009 (ip), vehicle: saline): 120 % of control; T/C [1]: 105 % of control; T/C [2]: 114 % of control; T/C (dose: 400.0 mg/kg/injection, schedule: Q01DX009 (ip), vehicle: saline): 103 % of control; T/C [3]: 105 % of control

Question: What does the source list for `c1ccc(C23c4ccccc4C(=NC4CCCCC4)C2N3C2CCCCC2)cc1` (configuration not stated)?
Answer: T/C [12]: 90 % of control; T/C (dose: 200.0 mg/kg/injection, schedule: Q04DX003 (ip), vehicle: Klucel (hydroxypropylcellulose) (HPC)): 100 % of control

Question: With `CC(=O)[C@H]1CC[C@H]2[C@@H]3CCC4=CC(=O)[C@H](C)C[C@]4(C)[C@@]3(F)C(=O)C[C@]12C` as the molecule, how does the T/C [5] read?
Answer: 95 % of control

Question: What about the T/C [7] of the same molecule?
Answer: 120 % of control

Question: And the T/C [10]?
Answer: 90 % of control

Question: And the T/C [8]?
Answer: 110 % of control

Question: And the T/C [9]?
Answer: 100 % of control

Question: Which results are given for `C=CC(C)(C)C12CC3C(=O)N/C(=C\c4cnc[nH]4)C(=O)N3C1Nc1ccccc12` (configuration not stated)?
Answer: T/C (dose: 50.0 mg/kg/injection, schedule: Q01DX009 (ip), vehicle: Klucel (hydroxypropylcellulose) (HPC)): 94 % of control; T/C [11]: 94 % of control; T/C [13]: 92 % of control

Question: `Cc1nc2c(=O)[nH]n(C)c2nc1C` was tested. Which T/C [5] did it give?
Answer: 97 % of control

Question: And the T/C [7]?
Answer: 95 % of control

Question: What about the T/C [10] of the same molecule?
Answer: 97 % of control

Question: And the T/C [8]?
Answer: 94 % of control

Question: What about the T/C [9] of the same molecule?
Answer: 99 % of control

Question: Which T/C (dose: 25.0 mg/kg/injection, schedule: Q01DX001 (ip), vehicle: saline sonified) does the source give for `CCCCCCCCCCCCCCCCCOc1ccc2ccccc2c1` here?
Answer: 100 % of control

Question: And the T/C (dose: 50.0 mg/kg/injection, schedule: Q01DX001 (ip), vehicle: saline sonified)?
Answer: 100 % of control

Question: And the T/C (dose: 100.0 mg/kg/injection, schedule: Q01DX001 (ip), vehicle: saline sonified)?
Answer: 90 % of control

Question: Which T/C (dose: 0.78 mg/kg/injection, schedule: Q01DX009 (ip), vehicle: saline) does the source give for `CCOC(=O)NC1=C(N2CC2)C(=O)C(NC(=O)OCC)=C(N2CC2)C1=O` here?
Answer: 199 % of control and 211 % of control and 212 % of control

Question: What about the T/C (dose: 1.56 mg/kg/injection, schedule: Q01DX009 (ip), vehicle: saline) of the same molecule?
Answer: 235 % of control and 238 % of control and 212 % of control

Question: And the T/C (dose: 3.12 mg/kg/injection, schedule: Q01DX009 (ip), vehicle: saline)?
Answer: 100 % of control

Question: With `Cc1cc(NC(=O)c2ccc(C(=O)Nc3ccc(C4=NCCN4)c(C)c3)cc2)ccc1C1=NCCN1` as the molecule, how does the T/C [5] read?
Answer: 122 % of control

Question: And the T/C [10]?
Answer: 186 % of control

Question: For `C#CC[As+](c1ccccc1)(c1ccccc1)c1ccccc1`, which T/C (dose: 3.0 mg/kg/injection, schedule: Q01DX009 (ip), vehicle: Klucel (hydroxypropylcellulose) (HPC)) is on record?
Answer: 121 % of control

Question: And the T/C (dose: 5.3 mg/kg/injection, schedule: Q04DX003 (ip), vehicle: Klucel (hydroxypropylcellulose) (HPC))?
Answer: 117 % of control

Question: And the T/C (dose: 12.0 mg/kg/injection, schedule: Q04DX003 (ip), vehicle: Klucel (hydroxypropylcellulose) (HPC))?
Answer: 104 % of control and 113 % of control

Question: What about the T/C (dose: 25.0 mg/kg/injection, schedule: Q04DX003 (ip), vehicle: Klucel (hydroxypropylcellulose) (HPC)) of the same molecule?
Answer: 109 % of control

Question: Which results are given for `N#Cc1ccc(Oc2ccc(C#N)cc2)cc1`?
Answer: T/C [7]: 92 % of control; T/C [8]: 88 % of control; T/C [9]: 88 % of control

Question: How did the T/C [14] turn out when `ClCCOC(OCCCl)OCCCl` was run?
Answer: 113 % of control

Question: And the T/C [4]?
Answer: 109 % of control

Question: What about the T/C [7] of the same molecule?
Answer: 95 % of control

Question: `CCCCC(OC(=O)c1ccccc1)c1cc(OC(=O)c2ccccc2)c2c(c1OC(=O)c1ccccc1)CC(C)=C(C)C2` (configuration not stated) was tested. Which T/C (dose: 12.5 mg/kg/injection, schedule: Q04DX003 (ip), vehicle: saline with Tween-80) did it give?
Answer: 111 % of control

Question: What about the T/C [6] of the same molecule?
Answer: 107 % of control

Question: Which results are given for `CC1(C)O[C@@H]2C[C@H]3[C@@H]4CCC5=CC(=O)C=C[C@]5(C)[C@@]4(F)[C@@H](O)C[C@]3(C)[C@]2(C(=O)CO)O1`?
Answer: T/C [4]: 100 % of control; T/C [7]: 108 % of control; T/C [8]: 100 % of control

Question: Which results are given for `CCCCCC(CN(C)C)C(=O)/C=C\c1ccc(Cl)cc1Cl` (configuration not stated)?
Answer: T/C (dose: 8.0 mg/kg/injection, schedule: Q01DX009 (ip), vehicle: saline): 122 % of control; T/C (dose: 12.0 mg/kg/injection, schedule: Q01DX009 (ip), vehicle: saline): 122 % of control; T/C (dose: 18.0 mg/kg/injection, schedule: Q01DX009 (ip), vehicle: saline): 122 % of control

Question: With `COc1cc(NC(C)CCCN)c2ncccc2c1Oc1ccc(Cl)cc1` (configuration not stated) as the molecule, how does the T/C [4] read?
Answer: 100 % of control
